Data as given in patent publication US6613798B1, “Small organic molecule regulators of cell proliferation” (Curis, Inc., priority 2000, dated 2003).
“Also recorded” adds a separate entry of the source.

Experiments:
[1] = system: human embryonic palatal mesenchyme (HEPM) cells with a Gli-Luc construct; assay: Gli-Luc reporter assay in human reporter cells; type: cell-based
Description: FIGS. 47A and B compare the activity of subject compounds O and R in mouse reporter cells (TM3 cells with a Gli-Luc reporter construct, as described above) and in human reporter cells (human embryonic palatal mesenchyme (HEPM) cells with a Gli-Luc construct).

[2] = system: patched (ptc-lacZ β-galactosidase reporter); assay: Reporter mice assay (ptc-lacZ mice, X-gal staining of tissues); type: in vivo, mouse
Procedure: Mice with a β-galactosidase transgene (ptc-lacZ mice) under the regulatory control of the patched locus expresss the β-galactosidase protein in the same cells where the endogenous mouse patched gene is expressed. The β-galactosidase protein can thus be used as a faithful reporter of the expression of the endogenous patched gene.
Ptc-lacZ mice were divided into four treatment groups and were treated with the following compounds or combinations of compounds for four days, beginning on the first day after birth (dipal-Shh=dipalmitoylated Sonic hedgehog):
The vehicle for the agonist was 10% DMSO in PBS (pH 7.2). The agonist was injected from a 4.67 mM stock dissolved in the vehicle solution.
18 hours following the last injections, the mice were sacrificed and the following tissues were collected: skull, kidney, lung, scapula, skin and heart. All tissues were fixed in 0.2% glutaraldehyde, 5 mM EDTA (pH 8.0), 20 mM MgCl2, 100 mM Na2HPO4 for 30 minutes before staining in 1 mg/ml X-gal, 12.5 mM potassium ferrocyanide, 12.5 mM potassium ferricyanide, 2 mM MgCl2, 0.01% deoxycholate, 0.02% NP-40, and 100 mM Na2HPO4 for 30 hours. Tissues were judged for relative intensity and photographed.
FIG. 42: Ptc-lacZ mice were divided into two treatment groups and were treated with the following compounds for three days, beginning on the first day after birth:
The vehicle for the agonist was 10% DMSO in PBS (pH 7.2). The agonist was injected from a 1.0 mM stock dissolved in the vehicle solution.
Eighteen hours following the last injections, the mice were sacrificed and the forelimbs were collected and processed as described above.
In a third experiment, Ptc-lacZ mice were divided into five treatment groups and were treated with the following compounds for four days, beginning on the first day after birth:
The vehicle for the agonist was 10% DMSO in PBS (pH 7.2). The agonist was injected from stocks of 0.3, 0.1 and 0.03 mM dissolved in the vehicle solution.
Eighteen hours following the last injections, the mice were sacrificed and the forelimbs were collected and processed as described above. Results of this experiment are depicted in FIG. 43, in which the vehicle control is not shown.

Gli-1 = assay: Quantitative RT-PCR (TaqMan) measurement of Gli-1 transcript in C3H 10T1/2 cells; type: cell-based, Murine; conditions: compound concentration of 8 μM
Procedure: (§1) The compounds of FIGS. 32 and 33 were tested for their ability to activate transcription of two well-studied targets of the Hedgehog pathway: the transcription factor Gli-1, and the putative Hedgehog receptor component Ptc-1.
(§2) Murine C3H 10T1/2 cells were seeded at approximately 200,000 cells per well in a 24-well plate in complete medium (10% FBS). After 24 hr, medium was removed and replaced with “starvation” medium (0.5% FBS) containing dilutions of compound or Hh protein. After 16-18 hr, total RNA was prepared using TriZol (Life Technologies, inc.).
(§3) One microgram aliquots of total RNA were used to prepare random hexamer-primed cDNA with […] Reverse transcriptase (Life Technologies, Inc.).
(§4) To measure the relative levels of Gli-1 and Ptc-1 transcripts, TaqMan assays (PE Biosystems) were performed with an ABI Prism 7700 Sequence Detection System. As an internal control, GAPDH transcript levels were simultaneously measured in each reaction. Data were analyzed using Sequence Detector v1.6.3 (Perkin Elmer).

[3] = system: ptc-1 (d11) lacZ kidney explants; assay: Kidney branching assay (ptc-1 lacZ kidney explants); type: cell-based, mouse; conditions: 5 μM, 48 hrs culture
Procedure: E13.5 old ptc-1 (d11) lacZ lungs were harvested and transgenic embryos identified by lacZ detection using tails. Explants were assembled on 1 μm polycarbonate filters (Costar) placed on top of plastic grids (histology embedding chamber) and placed in standard 12-well tissue culture plates filled with kidney explant culture medium (DMEM based, additives optimized for the culture of mouse lungs) for 48 hrs, fixed in lacZ fixative, rinsed and stained for lacZ O/N at 37° C.
Results are depicted in FIG. 45. In the control panel on the left, LacZ expression can be observed in the mesenchyme immediately adjacent to proximalmost ureteric epitheilium, a pattern reflective of endogenous patched expression.

ptc-1 (d11) lacZ lungs = assay: Lung branching assay (ptc-1 lacZ lung explants); type: cell-based, mouse; conditions: 5 μM, 48 hrs culture
Procedure: E 12.5 old ptc-1 (d11) lacZ lungs were harvested and transgenic embryos identified by lacZ detection using tails. Explants were assembled on 1 μm polycarbonate filters (Costar) placed on top of plastic grids (histology embedding chamber) and placed in standard 12-well tissue culture plates filled with lung explant culture medium (DMEM based, additives optimized for the culture of mouse lungs) for 48 hrs, fixed in lacZ fixative, rinsed and stained for lacZ O/N at 37° C.
Results are depicted in FIG. 44. In the control panel on the left, LacZ expression can be observed in the mesenchyme immediately adjacent to distal branching tips, a pattern reflective of endogenous patched expression.

[4] = system: cerebellar neuron precursors; assay: Cerebellar neuron precursor proliferation (3H-thymidine incorporation); type: cell-based, rat; conditions: in the absence of Hh protein treatment
Procedure: In order to test the efficacy of Hedgehog signaling agonists, the ability of the agonists to stimulate the proliferation of cerebellar neuron precursors was determined. Cerebellar granule neuron precursors are known to respond to Hh protein by proliferating. To test the agonists, cerebellar neurons were dissected out of postnatal (one week) rat brains, and placed into primary cell culture. Treatment agents were added once, on the first day of culture (0 DIV). Cells were left in culture until 2 DIV, when 3H-thymidine was added for 5 hours; the amount of incorporation by the cells of this 3H-thymidine provides a measure of the level of proliferation of the cells. Cells were then lysed, and the incorporation of 3H-thymidine was determined. The positive control was Hh protein, at 1.0 μg/ml final concentration. Hh protein alone caused approximately a 20-fold increase in 3H-thymidine incorporation, consistent with the known ability of Shh to stimulate proliferation of these cells. Non-Hh-protein-stimulated cells, including cells treated with control vehicle (DMSO), had very low levels of proliferation. […] At 5.0 μM, the p-cyanophenyl compound B caused 10.2-fold induction of 3H-thymidine incorporation. […] At 1.0, 0.3, or 0.1 μM, D caused 16-, 17-, or 13-fold induction, respectively, of 3H thymidine incorporation into the cells.

Ptc-1 = assay: Quantitative RT-PCR (TaqMan) measurement of Ptc-1 transcript in C3H 10T1/2 cells; type: cell-based, Murine; conditions: compound concentration of 8 μM
Procedure: as §1, §2, §3, §4

ptc-lacZ skin punches = assay: Skin explants from ptc-lacZ pups (X-Gal stain); type: cell-based, mouse; conditions: agonist and a low dose of Hh protein, cultured 6 days
Procedure: Skin from ptc-lacZ E17.5 pups was excised with a 2 mm skin punch. Those skin punches were then cultured for 6 days in control media, or media including either agonist B or D or Hh protein, or media including both an agonist and Hh protein. The explants were then stained with X-Gal stain.

CNC1CCC(N(Cc2ccc(-c3cccnc3)o2)C(=O)c2sc3ccccc3c2Cl)CC1 (centres unmarked) [R]
activation of Gli-Luc reporter in human cells [1]: activation of the reporter cell line

COc1ccc(CN(C(=O)c2sc3ccccc3c2Cl)C2CCC(N)CC2)cc1-c1ccc(C#N)cc1 (centres unmarked) [B]
upregulation of β-galactosidase (hedgehog pathway) in tissues ([2]; 15 mg/kg/injection 4X/day plus dipal-Shh 1 mg/kg/injection 2X/day, four days from first day after birth, skull, kidney, lung, scapula, skin, heart): clearly capable of upregulating the hedgehog pathway in vivo | induction of Gli-1 relative to that obtained with the optimal concentration of Hh protein (Gli-1): approximately 60% | LacZ reporter gene expression in kidney explants [3]: significantly increased reporter gene expression and expansion of the expression domain of the transgene | LacZ reporter gene expression in lung explants (ptc-1 (d11) lacZ lungs): significantly increased reporter gene expression and expansion of the expression domain of the transgene | stimulation of 3H-thymidine incorporation [4]: significantly stimulate 3H-thymidine incorporation | induction of Ptc-1 relative to that obtained with the optimal concentration of Hh protein (Ptc-1): approximately 60%

COc1ccc(CN(C(=O)c2sc3ccccc3c2Cl)C2CCC(N)CC2)cc1-c1cccc([N+](=O)[O-])c1 (centres unmarked) [A]
induction of Gli-1 relative to that obtained with the optimal concentration of Hh protein (Gli-1): ~40% | stimulation of 3H-thymidine incorporation [4]: significantly stimulate 3H-thymidine incorporation | induction of Ptc-1 relative to that obtained with the optimal concentration of Hh protein (Ptc-1): ~40%

CNC1CCC(N(Cc2ccc(OC)c(-c3ccc(C#N)cc3)c2)C(=O)c2sc3ccccc3c2Cl)CC1 (centres unmarked) [D]
upregulation of hedgehog pathway (β-galactosidase) in forelimbs ([2]; 0.1 mg/kg/injection 4X/day, four days): very weak upregulation | upregulation of hedgehog pathway (β-galactosidase) in forelimbs ([2]; 0.3 mg/kg/injection 4X/day, four days): greater than that seen with injections of Hh protein | upregulation of hedgehog pathway (β-galactosidase) in forelimbs ([2]; 0.9 mg/kg/injection 4X/day, four days, listed as agonist D): highest levels of upregulation; also recorded: greater than that seen with injections of Hh protein | upregulation of hedgehog pathway (β-galactosidase) in forelimbs ([2]; 4 mg/kg/injection 4X/day, three days, absence of dipal-Shh, listed as Agonist D): clearly capable of upregulating the hedgehog pathway in vivo | upregulation of hedgehog pathway (β-galactosidase) in forelimbs ([2]; 4 mg/kg/injection 4X/day, three days, absence of dipal-Shh, listed as agonist D): greater than that seen with injections of dipal-Shh | X-Gal staining of skin explants (ptc-lacZ skin punches): Analogous results | stimulation of 3H-thymidine incorporation [4]: strongly stimulated 3H-thymidine incorporation
